Patent US6107549A, “Genetically engineered plant resistance to thiazopyr and other pyridine herbicides” (Monsanto Company, priority 1999, dated 2000)
Read-outs that look alike come from different tables or passages of the source.

Columns and labels:
[1] = molecular target: T1, pyridine-esterase (Oryctolagus cuniculus, UniProt P12337, A196R/H30K); type: biochemical, rabbit; conditions: tobacco line #37437 extract, FIG. 4
T1 construct: made in house; host or cells: transgenic tobacco (Samson) and tomato (UC82B) plants, tissue extracts
T1 sequence (P12337 19-565 H30K/A196R): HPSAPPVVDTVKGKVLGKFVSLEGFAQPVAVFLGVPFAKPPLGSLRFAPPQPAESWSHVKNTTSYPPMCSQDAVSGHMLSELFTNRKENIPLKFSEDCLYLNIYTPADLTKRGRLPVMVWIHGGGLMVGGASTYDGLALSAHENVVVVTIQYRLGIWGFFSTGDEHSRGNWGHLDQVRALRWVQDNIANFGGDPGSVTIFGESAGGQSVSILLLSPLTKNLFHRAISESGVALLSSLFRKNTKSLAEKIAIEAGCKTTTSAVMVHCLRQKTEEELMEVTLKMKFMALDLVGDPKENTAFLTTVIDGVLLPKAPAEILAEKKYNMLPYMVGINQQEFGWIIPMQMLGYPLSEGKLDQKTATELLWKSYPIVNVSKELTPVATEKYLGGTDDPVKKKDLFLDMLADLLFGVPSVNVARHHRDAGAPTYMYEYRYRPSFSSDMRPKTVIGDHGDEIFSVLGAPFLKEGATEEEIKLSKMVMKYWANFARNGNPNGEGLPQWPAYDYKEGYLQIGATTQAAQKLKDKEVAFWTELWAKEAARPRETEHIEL
Description: (§1) Esterase activity assays. Esterase activity was measured in vitro by conversion of either [^14 C]thiazopyr or [^14 C]MON 14300 to their corresponding monoacid. Pyridine-esterase activity was assayed during protein purification and from tissue extracts of transgenic plants. The homogenizing buffer for plant tissues consisted of 100 mM Tris pH 8.0, 1 mM EDTA, 1 mM DTT, and 10% glycerol in water. Plant tissues (1 g/ml buffer) including leaves, seeds, flowers, seedlings, etc. were homogenized in conical centrifuge tubes using a spinning pestle at 4° C. Following centrifugation (12,000× g), the supernatant (250 μl) was assayed immediately for esterase activity by incubation with [^14 C]thiazopyr or [^14 C]MON 14300 (4 μg) in 0.1 M Tris pH 8.0 buffer (50 μl) at 37° C. The reaction was sampled (100 μL) at various times (0.5 to 100 hr) to generate a kinetic profile of monoacid formation. The reaction was stopped by addition of 1% trifluoroacetic acid in acetonitrile (v/v, 150 μl). Following centrifugation (12,000× g for 3 min), the supernatant was analyzed by HPLC/RAD (radioactivity detection) to resolve the monoacid from the parent herbicide and other metabolites. Control reactions in the absence of the esterase recovered un-reacted thiazopyr or MON 14300 for the duration of experiments. Esterase activity was also assayed during protein purification following a similar procedure except a single time-point (1-2 hrs) of incubation was selected within the linear range of reaction. In vitro assays also employed three commonly used calorimetric (p-nitrophenyl butyrate) or fluorescent (4-methyl umbelliferyl butyrate and 5-bromo-4-chloro-3-indolylacetate) substrates. These substrates are useful in rapidly and qualitatively detecting general esterase activity.
Tissue extracts from 3 tobacco R1 seedlings were employed for further studies. Two of the lines (#37437 and #37432) expressed high levels of esterase (~0.5%) and one line (#37436) which expressed no pyridine-esterase was used as negative control. Tissue extracts were incubated with [^14 C]MON 14300 and formation of the monoacid monitored with time. […] In comparison, less that 2% monoacid was detected in line (#37436). […] First, pyridine-esterase was capable of driving the hydrolysis reaction to completion with no apparent product inhibition, and second, there was no endogenous esterase activity in tobacco which catalyzed MON 14300 hydrolysis.

[2] = Feng et al., 1995b; cited from earlier work
[3] = molecular target: T2, RLE3 (Oryctolagus cuniculus, UniProt P12337, A196R/H30K); assay: Esterase activity of RLE3 cDNA expressed in insect cells; type: biochemical, rabbit; conditions: culture media from RLE3 cells; esterase inhibitor
T2 construct: 19-residue synthetic ER signal peptide (design based on the homologous rat esterase, Robbi et al. 1990; Ala added after Met) (N); made in house; host or cells: Spodoptera frugiperda SF9 cells, baculovirus
T2 sequence (P12337 with tags, fused parts or gaps H30K/A196R): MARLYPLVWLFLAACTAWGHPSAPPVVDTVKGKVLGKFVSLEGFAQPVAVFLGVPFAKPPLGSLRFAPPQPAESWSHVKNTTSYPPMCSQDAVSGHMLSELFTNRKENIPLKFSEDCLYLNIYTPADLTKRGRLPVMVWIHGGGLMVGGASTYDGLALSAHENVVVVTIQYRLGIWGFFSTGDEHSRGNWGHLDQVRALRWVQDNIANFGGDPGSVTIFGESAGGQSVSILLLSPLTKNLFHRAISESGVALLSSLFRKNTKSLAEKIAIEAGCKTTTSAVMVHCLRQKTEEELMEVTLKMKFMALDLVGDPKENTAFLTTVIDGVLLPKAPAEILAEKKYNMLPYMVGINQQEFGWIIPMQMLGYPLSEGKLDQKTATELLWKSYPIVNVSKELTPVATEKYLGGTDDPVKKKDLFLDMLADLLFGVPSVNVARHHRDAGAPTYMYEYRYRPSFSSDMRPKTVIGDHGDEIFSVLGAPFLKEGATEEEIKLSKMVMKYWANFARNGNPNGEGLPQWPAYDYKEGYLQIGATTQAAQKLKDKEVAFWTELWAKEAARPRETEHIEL
Description: as §1
Expression of RLE1 and RLE3 cDNAs in insect cells. Mature rabbit liver esterases are glycoproteins which reside in the lumen of the endoplasmic reticulum (ER) (Korza et al., 1988). […]

COC(=O)c1c(Cl)nn(C)c1S(=O)(=O)NC(=O)Nc1nc(OC)cc(OC)n1
hydrolysis by pyridine-esterase (substrate specificity) [1]: little to no hydrolysis | hydrolysis by pyridine-esterase (substrate specificity) ([1]; listed as halosulfiron): not

CC(C)Cc1c(C(=O)O)c(C(F)F)nc(C(F)(F)F)c1C1=NCCS1 [monoacid metabolite]
herbicidal activity [2]: virtually devoid of any herbicidal activity

O=[N+]([O-])c1ccc(OP(=O)(O)Oc2ccc([N+](=O)[O-])cc2)cc1 [bis(p-nitropheyl) phosphate]
inactivation of esterase activity [3]: inactivated

CSC(=O)c1c(C(F)F)nc(C(F)(F)F)c(C(=O)SC)c1CC(C)C [Dithiopyr, dithiopyr]
hydrolysis by pyridine-esterase (substrate specificity) [1]: not hydrolyzed
